Laboratory results: ChEMBL document CHEMBL3525916, “Investigation of figopitant and its metabolites in rat tissue by combining whole-body autoradiography with liquid extraction surface analysis mass spectrometry” (Drug Metab Dispos, 2012)

Assays:
Details in all cases: in vivo
Liver [1] = assay: Biodistribution in albino Wistar Hannover rat liver at 5 mg/kg, iv after 24 hrs by autoradiography analysis; format: ADME, organism-based; design: dose 5 mg/kg, route intravenous
Rattus norvegicus [2] = assay: Biodistribution in albino Wistar Hannover rat renal cortex at 5 mg/kg, iv after 24 hrs by autoradiography analysis; format: ADME, organism-based; design: dose 5 mg/kg, route intravenous
Rattus norvegicus [3] = assay: Biodistribution in albino Wistar Hannover rat epididymis at 5 mg/kg, iv after 24 hrs by autoradiography analysis; format: ADME, organism-based; design: dose 5 mg/kg, route intravenous
Rattus norvegicus [4] = assay: Biodistribution in albino Wistar Hannover rat adrenal cortex at 5 mg/kg, iv after 24 hrs by autoradiography analysis; format: ADME, organism-based; design: dose 5 mg/kg, route intravenous
Pituitary gland [5] = assay: Biodistribution in albino Wistar Hannover rat pituitary at 5 mg/kg, iv after 24 hrs by autoradiography analysis; format: ADME, organism-based; design: dose 5 mg/kg, route intravenous
Rattus norvegicus [6] = assay: Biodistribution in albino Wistar Hannover rat bone marrow at 5 mg/kg, iv after 24 hrs by autoradiography analysis; format: ADME, organism-based; design: dose 5 mg/kg, route intravenous
Brain [7] = assay: Half life in albino Wistar Hannover rat brain at 5 mg/kg, iv by autoradiography analysis; format: ADME, organism-based; design: dose 5 mg/kg, route intravenous
Spleen [8] = assay: Drug uptake in albino Wistar Hannover rat spleen at 5 mg/kg, iv by LESA-MS analysis; format: ADME, organism-based; design: dose 5 mg/kg, route intravenous
Rattus norvegicus [9] = assay: Biodistribution in albino Wistar Hannover rat bone marrow at 5 mg/kg, iv after 4 hrs by autoradiography analysis; format: ADME, organism-based; design: dose 5 mg/kg, route intravenous
Plasma [10] = assay: Biodistribution in albino Wistar Hannover rat plasma at 5 mg/kg, iv after 4 hrs by liquid scintillation counting; format: ADME, organism-based; design: dose 5 mg/kg, route intravenous
Brain [11] = assay: Biodistribution in albino Wistar Hannover rat brain at 5 mg/kg, iv after 4 hrs by autoradiography analysis; format: ADME, organism-based; design: dose 5 mg/kg, route intravenous
Harderian gland [12] = assay: Biodistribution in albino Wistar Hannover rat harderian gland at 5 mg/kg, iv after 4 hrs by autoradiography analysis; format: ADME, organism-based; design: dose 5 mg/kg, route intravenous
Zone of skin = assay: Biodistribution in albino Wistar Hannover rat skin at 5 mg/kg, iv after 4 hrs by autoradiography analysis; format: ADME, organism-based; design: dose 5 mg/kg, route intravenous
Rattus norvegicus [13] = assay: Biodistribution in albino Wistar Hannover rat muscle caudal at 5 mg/kg, iv after 24 hrs by autoradiography analysis; format: ADME, organism-based, Muscle tissue; design: dose 5 mg/kg, route intravenous
Rattus norvegicus [14] = assay: Biodistribution in albino Wistar Hannover rat salivary gland at 5 mg/kg, iv after 24 hrs by autoradiography analysis; format: ADME, organism-based; design: dose 5 mg/kg, route intravenous
Lung [15] = assay: Half life in albino Wistar Hannover rat lung at 5 mg/kg, iv by autoradiography analysis; format: ADME, organism-based; design: dose 5 mg/kg, route intravenous
[16] = Half life in albino Wistar Hannover rat testis at 5 mg/kg, iv by autoradiography analysis; format: ADME, organism-based; design: dose 5 mg/kg, route intravenous
Thymus [17] = assay: Half life in albino Wistar Hannover rat thymus at 5 mg/kg, iv by autoradiography analysis; format: ADME, organism-based; design: dose 5 mg/kg, route intravenous
[18] = Drug uptake in albino Wistar Hannover rat epididymis at 5 mg/kg, iv by LESA-MS analysis; format: ADME, organism-based; design: dose 5 mg/kg, route intravenous
Pituitary gland [19] = assay: Drug uptake in albino Wistar Hannover rat pituitary at 5 mg/kg, iv by LESA-MS analysis; format: ADME, organism-based; design: dose 5 mg/kg, route intravenous
Kidney = assay: Drug uptake in albino Wistar Hannover rat outer medulla of kidney at 5 mg/kg, iv by LESA-MS analysis; format: ADME, organism-based; design: dose 5 mg/kg, route intravenous
Liver [20] = assay: Drug uptake in albino Wistar Hannover rat liver at 5 mg/kg, iv by LESA-MS analysis; format: ADME, organism-based; design: dose 5 mg/kg, route intravenous
[21] = Drug uptake in albino Wistar Hannover rat testis at 5 mg/kg, iv by LESA-MS analysis; format: ADME, organism-based; design: dose 5 mg/kg, route intravenous
Rattus norvegicus [22] = assay: Biodistribution in albino Wistar Hannover rat muscle cranial at 5 mg/kg, iv after 5 mins by autoradiography analysis; format: ADME, organism-based, Muscle tissue; design: dose 5 mg/kg, route intravenous
Rattus norvegicus [23] = assay: Biodistribution in albino Wistar Hannover rat tongue at 5 mg/kg, iv after 5 mins by autoradiography analysis; format: ADME, organism-based; design: dose 5 mg/kg, route intravenous
Rattus norvegicus [24] = assay: Biodistribution in albino Wistar Hannover rat salivary gland at 5 mg/kg, iv after 5 mins by autoradiography analysis; format: ADME, organism-based; design: dose 5 mg/kg, route intravenous
Pancreas = assay: Biodistribution in albino Wistar Hannover rat pancreas at 5 mg/kg, iv after 5 mins by autoradiography analysis; format: ADME, organism-based; design: dose 5 mg/kg, route intravenous
Rattus norvegicus [25] = assay: Biodistribution in albino Wistar Hannover rat adipose tissue at 5 mg/kg, iv after 5 mins by autoradiography analysis; format: ADME, organism-based; design: dose 5 mg/kg, route intravenous
Lung [26] = assay: Biodistribution in albino Wistar Hannover rat lung at 5 mg/kg, iv after 5 mins by autoradiography analysis; format: ADME, organism-based; design: dose 5 mg/kg, route intravenous
Rattus norvegicus [27] = assay: Biodistribution in albino Wistar Hannover rat epididymis at 5 mg/kg, iv after 5 mins by autoradiography analysis; format: ADME, organism-based; design: dose 5 mg/kg, route intravenous
Blood = assay: Biodistribution in albino Wistar Hannover rat whole blood at 5 mg/kg, iv after 5 mins by liquid scintillation counting; format: ADME, organism-based; design: dose 5 mg/kg, route intravenous
Plasma [28] = assay: Biodistribution in albino Wistar Hannover rat plasma at 5 mg/kg, iv after 5 mins by liquid scintillation counting; format: ADME, organism-based; design: dose 5 mg/kg, route intravenous
Brain [29] = assay: Biodistribution in albino Wistar Hannover rat brain at 5 mg/kg, iv after 5 mins by autoradiography analysis; format: ADME, organism-based; design: dose 5 mg/kg, route intravenous
Harderian gland [30] = assay: Biodistribution in albino Wistar Hannover rat harderian gland at 5 mg/kg, iv after 5 mins by autoradiography analysis; format: ADME, organism-based; design: dose 5 mg/kg, route intravenous
Rattus norvegicus [31] = assay: Biodistribution in albino Wistar Hannover rat muscle caudal at 5 mg/kg, iv after 4 hrs by autoradiography analysis; format: ADME, organism-based, Muscle tissue; design: dose 5 mg/kg, route intravenous
Rattus norvegicus [32] = assay: Biodistribution in albino Wistar Hannover rat salivary gland at 5 mg/kg, iv after 4 hrs by autoradiography analysis; format: ADME, organism-based; design: dose 5 mg/kg, route intravenous
Rattus norvegicus [33] = assay: Biodistribution in albino Wistar Hannover rat adipose tissue at 5 mg/kg, iv after 4 hrs by autoradiography analysis; format: ADME, organism-based; design: dose 5 mg/kg, route intravenous
Rattus norvegicus [34] = assay: Biodistribution in albino Wistar Hannover rat renal cortex at 5 mg/kg, iv after 4 hrs by autoradiography analysis; format: ADME, organism-based; design: dose 5 mg/kg, route intravenous
Rattus norvegicus [35] = assay: Biodistribution in albino Wistar Hannover rat epididymis at 5 mg/kg, iv after 4 hrs by autoradiography analysis; format: ADME, organism-based; design: dose 5 mg/kg, route intravenous
Spleen [36] = assay: Biodistribution in albino Wistar Hannover rat spleen at 5 mg/kg, iv after 4 hrs by autoradiography analysis; format: ADME, organism-based; design: dose 5 mg/kg, route intravenous
Thymus [37] = assay: Biodistribution in albino Wistar Hannover rat thymus at 5 mg/kg, iv after 4 hrs by autoradiography analysis; format: ADME, organism-based; design: dose 5 mg/kg, route intravenous
Liver [38] = assay: Drug uptake in albino Wistar Hannover rat liver at 5 mg/kg, iv

- Drug uptake (Liver [1]): 4793 ngequiv/g
- Drug uptake (Rattus norvegicus [2]): 2627 ngequiv/g
- Drug uptake (Rattus norvegicus [3]): 1043 ngequiv/g
- Drug uptake (Rattus norvegicus [4]): 3447 ngequiv/g
- Drug uptake (Pituitary gland [5]): 2350 ngequiv/g
- Drug uptake (Rattus norvegicus [6]): 1156 ngequiv/g
- t1/2 (Brain [7]): 32.7 h
- Drug uptake (Spleen [8]): 30.9%
- Drug uptake (Rattus norvegicus [9]): 3910 ngequiv/g
- Drug uptake (Plasma [10]): 192 ngequiv/g
- Drug uptake (Brain [11]): 122 ngequiv/g
- Drug uptake (Harderian gland [12]): 13941 ngequiv/g
- Drug uptake (Zone of skin): 1997 ngequiv/g
- Drug uptake (Rattus norvegicus [13]): 670 ngequiv/g
- Drug uptake (Rattus norvegicus [14]): 1877 ngequiv/g
- t1/2 (Lung [15]): 20.5 h
- t1/2 [16]: 95.6 h
- t1/2 (Thymus [17]): 22.7 h
- Drug uptake [18]: 62.1%
- Drug uptake (Pituitary gland [19]): 47.8%
- Drug uptake (Kidney): 20.8%
- Drug uptake (Liver [20]): 12.9%
- Drug uptake [21]: 79.5%
- Drug uptake (Rattus norvegicus [22]): 8437 ngequiv/g
- Drug uptake (Rattus norvegicus [23]): 12885 ngequiv/g
- Drug uptake (Rattus norvegicus [24]): 10729 ngequiv/g
- Drug uptake (Pancreas): 17869 ngequiv/g
- Drug uptake (Rattus norvegicus [25]): 467 ngequiv/g
- Drug uptake (Lung [26]): 24769 ngequiv/g
- Drug uptake (Rattus norvegicus [27]): 1728 ngequiv/g
- Drug uptake (Blood): 830 ngequiv/g
- Drug uptake (Plasma [28]): 483 ngequiv/g
- Drug uptake (Brain [29]): 1912 ngequiv/g
- Drug uptake (Harderian gland [30]): 4132 ngequiv/g
- Drug uptake (Rattus norvegicus [31]): 2606 ngequiv/g
- Drug uptake (Rattus norvegicus [32]): 8238 ngequiv/g
- Drug uptake (Rattus norvegicus [33]): 537 ngequiv/g
- Drug uptake (Rattus norvegicus [34]): 8020 ngequiv/g
- Drug uptake (Rattus norvegicus [35]): 2290 ngequiv/g
- Drug uptake (Spleen [36]): 10694 ngequiv/g
- Drug uptake (Thymus [37]): 3372 ngequiv/g
- Drug uptake (Liver [38]): 12.9%
Structure (SMILES): CN(CCc1cc(C(F)(F)F)cc(C(F)(F)F)c1)C(=O)[C@H](c1ccccc1)N1CCN(CC2CC2)CC1.Cl.O
